Source: patent US20120010177A1, “MicroRNA Modulators and Method for Identifying And Using The Same” (The Wistar Institute / North Carolina State University, priority 2008, published 2012)
Read-outs that look alike come from different tables or passages of the source.

Test system: miR-21
Assay: High throughput primary miR-21 FLuc reporter assay (concentration-response)
Format: cell-based, human
Procedure: Primary miR-21 Assay. The primary miR-21 FLuc reporter assay is carried out with HeLa cells expressing the Luc-miR-21 reporter using a 48-hour incubation time. Active compounds that increase the luciferase response are identified based upon inhibition of miR-21.
SAR. The concentration-response data for the entire high throughput screen is plotted and modeled by a four parameter logistic fit and SAR analysis is performed according to conventional approaches (Iglese, et al. (2006) Proc. Natl. Acad. Sci. USA […]:11473-8). In brief, Class 1.1 and 1.2 are full curves containing upper and lower asymptotes with efficacy ≧80% and <80%, respectively. Class 2.1 and 2.2 are incomplete curves having only one asymptote with efficacy ≧80% and <80%, respectively. Class 3 curves show activity at only the highest concentration or are poorly fit. […] For SAR analysis, compounds associated with Class 1 and 2.1 curves are clustered using LEADSCOPE® fingerprints. […] Compounds sharing a common scaffold form a series. Candidate series and singletons are chosen for follow up studies. For each lead or series, an appropriate library design method (e.g., point substitution library or matrix library) is selected. Typically, precursors are synthesized and a library of 15-25 compounds is produced for analysis in the above-described assays.

[1] = Homo sapiens, HeLa, 48 h, HeLa Luc-miR-21 reporter, 48-hour incubation, read-out: AC50
[2] = Homo sapiens, Table 12 singletons, read-out: AC50

SMILES | AC50 [1] [µM] | AC50 [2] [µM] | other results
C/C(CCc1ccc2c(c1)OCO2)=N\NC(=O)c1ccccc1 [Compound 225] | 13.1 | – | –
N#CC1=C(SCC(=O)Nc2ccccc2)NC(=O)CC1c1ccc(O)cc1 (centres unmarked) [Compound 275] | – | 6.56 | –
Cc1ccc2oc(=O)c(/C=C(\O)c3cccs3)nc2c1 [Compound 346] | – | 14.7 | –
N#CC1=C(SCC(=O)Nc2ccccc2)NC(=O)CC1c1ccc(O)cc1 (centres unmarked) [Compound 136] | 6.56 | – | –
Cc1ccc(-c2nnc(SCC(=O)Nc3nccs3)n2N)cc1 [Compound 159] | 16.5 | – | –
C/C(=N\NC(=O)c1nn(C)cc1Br)c1ccc(NC(=O)c2ccncc2)cc1 [Compound 234] | 18.5 | – | –
Oc1csc(Cc2nc(-c3ccccc3F)cs2)n1 [Compound 276] | – | 6.56 | –
Cc1nnc(SCc2nc(N)nc(Nc3ccccc3)n2)s1 [Compound 60] | 11.7 | – | –
Nc1c(-c2nc(-c3cccs3)no2)nnn1-c1ccccc1Cl [Compound 22] | 0.09 | – | –
CC(/C=C/c1ccccc1)=N\N/C(S)=N/C(C)C [Compound 302] | – | 14.7 | –
COCC(=O)Nc1c(C(=O)Nc2ccc3c(c2)OCCO3)oc2ccccc12 [Compound 100] | 0.66 | – | –
Fc1cccc(Cl)c1CSc1nnc2ccccn12 [Compound 46] | 10.4 | – | –
COc1cccc(OC)c1-c1nn2c(-c3ccco3)nnc2s1 [Compound 57] | 11.7 | – | –
Brc1ccc(CSc2nnc3ccccn23)cc1 [Compound 51] | 16.5 | – | –
O=C(CC1NCCc2ccccc21)Nc1cccc(Cl)c1 (centres unmarked) [Compound 315] | – | 16.5 | –
COc1ccc(CNc2nc(-c3ccccc3)nn2C(=O)c2ccc([N+](=O)[O-])cc2)cc1 [Compound 38] | 14.7 | – | –
O=c1c(=Nc2ccccc2O)c(=O)c2ccccc12 [Compound 294] | – | 13.1 | –
O=C(CCS(=O)(=O)c1ccccc1)Nc1ccc(-c2nc3ccccc3s2)cc1 [Compound 249] | – | 0.26 | –
CCC(=O)Oc1ccc(NC(=O)CSCc2ccccc2)cc1 [Compound 146] | 11.7 | – | –
Cc1ccc(CNc2nc(-c3ccco3)nn2S(C)(=O)=O)cc1 [Compound 29] | 0.58 | – | –
COc1ccc(-c2nnc(SCC(=O)Nc3cccc(C)c3)s2)cc1 [Compound 151] | 13.1 | – | –
COc1ccc(OCC(=O)Nc2cc(-c3nc4ccccc4s3)ccc2C)cc1 [Compound 184] | 4.65 | – | –

SMILES | AC50 [1] [µM] | AC50 [2] [µM] | other results
Cc1cc(C(F)(F)F)c(C#N)c(SCC(=O)Nc2nc3cc(Br)ccc3s2)n1 [Compound 129] | 3.69 | – | –
O=C(COc1ccccc1F)Nc1ccc(-c2nc3ccccc3s2)cc1 [Compound 166] | 1.47 | – | –
COc1ccc(C(CC(=O)Nc2ccc(C(C)=O)cc2)N2Cc3ccccc3C2=O)cc1 (centres unmarked) [Compound 289] | – | 11.7 | –
O=C(NC12CC3CC(CC(C3)C1)C2)N1CCN(C(=O)c2ccco2)CC1 [Compound 317] | – | 16.5 | –
CC(C)C(=O)Nc1nc2c(s1)CC(C(C)(C)C)CC2 (centres unmarked) [Compound 94] | 2.07 | – | –
Nc1c(-c2nc(-c3cccs3)no2)nnn1-c1cccc(F)c1 [Compound 10] | 0.21 | – | –
CN1CCN(NC(=O)Nc2ccc(Br)cc2Cl)CC1 [Compound 116] | 13.1 | – | –
CSc1ccc(-c2cccc([N+](=O)[O-])c2)nn1 [Compound 277] | – | 6.56 | –
O=C1C(Nc2ccccc2)=C2CCCC=C2N1c1ccccc1 [Compound 267] | – | 4.14 | –
Cc1ccc2c(c1)NCC(C(=O)NC1CCC(C)CC1)O2 (centres unmarked) [Compound 305] | – | 14.7 | –
O=C(c1ccc([N+](=O)[O-])cc1)n1nc(-c2ccccc2)nc1NCc1ccccc1 [Compound 34] | 8.26 | – | –
O=C(Nc1ccccc1)c1cc2n(n1)C(C(F)(F)F)CC(C1CC1)N2 (centres unmarked) [Compound 272] | – | 6.56 | –
Cc1cc(NC(=O)CSc2nc3ccsc3c(=O)n2NC(=O)c2ccccc2)no1 [Compound 133] | 5.21 | – | –
CC1=NN(C(=O)c2ccoc2C)C(O)(C(F)(F)F)C1 (centres unmarked) [Compound 217] | 10.4 | – | –
Cc1ccc(NC(=O)Cc2noc3ccccc23)nc1 [Compound 111] | 16.5 | – | –
Cc1ccc(C)c(-n2nnc(-c3nc(-c4ccc(Cl)cc4)no3)c2N)c1 [Compound 55] | – | – | AC50 (HeLa Luc-miR-21 reporter, 48-hour incubation, read-out: AC50): 1.85 µM
Cn1c(=O)[nH]c2cc(-c3noc(-c4ccc(F)cc4)n3)ccc21 [Compound 252] | – | 1.31 | –
Cc1c(-c2nc(-c3ccc(C(F)(F)F)cc3)no2)n(C)oc1=O [Compound 250] | – | 0.29 | –
COc1ccc(NC(=O)c2nnn(CC(=O)Nc3cccc(C)c3C)c2N)c(OC)c1 [Compound 102] | 13.1 | – | –
Cc1cc(CC(C)C)n(-c2nc3ccccc3c(=O)n2OCC(N)=O)n1 [Compound 313] | – | 14.7 | –
Cc1ccc2[nH]c3c(S)ncnc3c2c1 [Compound 264] | – | 3.69 | –
COc1ccc(N/C(S)=N/NC(=O)c2cccs2)cc1 [Compound 208] | 7.36 | – | –

SMILES | AC50 [1] [µM] | AC50 [2] [µM] | other results
COc1cc(O)sc1/C=N/c1ccc(Cl)cc1 [Compound 279] | – | 7.36 | –
Cn1c(=N)n(CC(=O)C(C)(C)C)c2ccccc21 [Compound 338] | – | 18.5 | –
Cc1cccc(-c2nnc(SCC(=O)Nc3ccc(C)c(C)c3)o2)c1 [Compound 134] | 5.85 | – | –
O=C(CSc1nnc(-c2ccc(O)cc2)o1)Nc1ccccc1Br [Compound 123] | 1.31 | – | –
Cc1nc2ccc(/N=C(\S)N3CCC(C)CC3)cc2nc1C [Compound 296] | – | 13.1 | –
Nc1cccc(CCc2nc3ccccc3[nH]2)c1 [Compound 336] | – | 18.5 | –
CC(=O)N(C)c1ccc(N/C(S)=N/c2cccc3ccccc23)cc1 [Compound 337] | – | 18.5 | –
COc1ccc(NC(=O)CSc2nnc(-c3cccs3)o2)cc1 [Compound 137] | 6.56 | – | –
COc1ccc(-c2c/c(=N\CC(=O)O)c3ccccc3o2)cc1.[O-][Cl+3]([O-])([O-])O [Compound 263] | – | – | AC50 (Homo sapiens): 3.69 µM
Cc1ccc(C)c(-n2nnc(-c3nc(-c4ccc(Cl)cc4)no3)c2N)c1 [Compound 21] | 1.31 | – | –
COCC(=O)n1nc(-c2ccco2)nc1NCc1ccccc1Cl [Compound 39] | 16.5 | – | –
Cc1cc(C)n2c(SCc3ccccc3Cl)nnc2n1 [Compound 52] | 16.5 | – | –
NC(=O)COC(=O)c1ccc2noc(-c3ccccc3)c2c1 [Compound 182] | 6.56 | – | –
CCC(C)NC(=O)CCCn1c(=O)c2cccn2c2ccccc21 (centres unmarked) [Compound 251] | – | 0.93 | –
NC(=O)c1ccccc1NC(=O)c1ccc(-c2ccc(Br)cc2)o1 [Compound 105] | 1.17 | – | –
Cc1ccc(-c2nc3cnccn3c2Nc2ccccc2)o1 [Compound 243] | 16.5 | – | –
O=C(N/N=C/c1ccc2cccnc2c1)c1nc(O)c2ccccc2n1 [Compound 224] | 13.1 | – | –
O=C(Nc1ccc2nc3n(c(=O)c2c1)CCCCC3)c1ccccc1Cl [Compound 112] | 6.56 | – | –
COc1ccc(-c2csc(NC(=O)COC(=O)c3ccc(Br)o3)n2)cc1 [Compound 177] | 2.93 | – | –
COc1cc(NC(=O)C/C(C)=N/NC(=O)c2ccccn2)c(OC)cc1Cl [Compound 194] | 3.69 | – | –
CCCCC12CN3CCN(CC(C3)/C1=N/NC(=O)c1ccccc1N)C2 [Compound 285] | – | 9.27 | –
CC(C)(C)c1ccc(-c2nc(NC(=O)CSc3ccc4ccccc4n3)ns2)cc1 [Compound 126] | 2.33 | – | –

SMILES | AC50 [1] [µM] | AC50 [2] [µM] | other results
CCN(CC)C(=O)CS/C(=N/C#N)Nc1ccccc1F [Compound 306] | – | 14.7 | –
O=C(Nc1ccc(N2CCOCC2)cc1)c1cc(F)c(F)cc1Cl [Compound 330] | – | 16.5 | –
CC(=O)N1N=C(c2ccc(C)cc2)OC1c1cccnc1 (centres unmarked) [Compound 228] | 16.5 | – | –
C/C(CCc1ccccc1)=N\NC(=O)c1ccccc1 [Compound 222] | 13.1 | – | –
CN(C)c1ccc(-n2cccc2/C=N/n2cnnc2)cc1 [Compound 282] | – | 8.26 | –
Nc1nc(CSCc2ccccc2)nc(N2CCOCC2)n1 [Compound 62] | 14.7 | – | –
COc1cccc(NC(=O)CSc2nnc(-c3cccs3)o2)c1 [Compound 139] | 6.56 | – | –
O=C(N/N=C1\CC2C=CCC12)c1cccs1 (centres unmarked) [Compound 221] | 11.7 | – | –
O=C(c1ccc(COCC(F)(F)F)cc1)N1CCN(c2ccccn2)CC1 [Compound 298] | – | 14.7 | –
CC(=O)n1nc(-c2ccccc2)nc1NCc1cccs1 [Compound 42] | 18.5 | – | –
Cc1c(-c2nnc(SCC(=O)Nc3ccccc3F)o2)nnn1-c1ccc(F)cc1 [Compound 127] | 2.93 | – | –
CCOC(=O)Nc1ccc2c(c1)ncn2C1CCCCC1 [Compound 333] | – | 18.5 | –
CC(=O)O[C@H]1C[C@@]2(C)[C@@H](C[C@@H](O)[C@H]3[C@@]4(C)CC[C@@H](O)[C@@H](C)C4CC[C@@]32C)/C1=C(\CCC=C(C)C)C(=O)O (some centres unmarked) [Compound 312] | – | 14.7 | –
COc1ccc(-c2csc(NC(=O)COC(=O)c3ccc(Br)o3)n2)cc1 [Compound 259] | – | 2.93 | –
O=c1c(NCc2cccs2)nccn1-c1ccc(F)cc1 [Compound 328] | – | 16.5 | –
O=c1ccc2ccc(OCc3nnc(-c4ccccc4Br)o3)cc2o1 [Compound 28] | 11.7 | – | –
Cc1cc(C)n2nc(SCCOc3ccccc3F)nc2n1 [Compound 47] | 11.7 | – | –
O=C(CSc1nnc(-c2ccc(Br)cc2)o1)Nc1cccc2ccccc12 [Compound 164] | 18.5 | – | –
COc1ccc(NC(=O)c2ncn(-c3ccccc3)n2)cc1Cl [Compound 101] | 9.27 | – | –
CCc1nonc1NC(=O)c1oc2ccc(C)cc2c1C [Compound 73] | 5.85 | – | –
